A word on the EC50: it is the concentration giving half of the maximal effect. For orientation: IC50 means the concentration needed to halve the response being measured.

Some results are limits rather than exact numbers.

The target in data set [1] is T1, Human Pregnane X Receptor (PXR) (Homo sapiens, UniProt O75469).
T1 construct: host or cells: DPX2 cells
T1 sequence (O75469 1-434): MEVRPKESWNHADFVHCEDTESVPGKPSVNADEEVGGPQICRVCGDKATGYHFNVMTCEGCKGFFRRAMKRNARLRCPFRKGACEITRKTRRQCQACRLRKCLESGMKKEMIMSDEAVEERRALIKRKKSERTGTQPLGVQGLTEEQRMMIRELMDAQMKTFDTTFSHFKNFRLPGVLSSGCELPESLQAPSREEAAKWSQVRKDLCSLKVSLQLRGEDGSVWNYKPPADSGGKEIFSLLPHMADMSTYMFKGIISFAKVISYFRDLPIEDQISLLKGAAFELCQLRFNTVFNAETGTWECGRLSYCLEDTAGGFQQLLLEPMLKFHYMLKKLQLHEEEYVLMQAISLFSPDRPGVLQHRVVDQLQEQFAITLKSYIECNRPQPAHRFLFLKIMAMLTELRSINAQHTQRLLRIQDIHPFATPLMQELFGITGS
In words: Human pregnane X receptor (PXR) assay, induction of PXR-mediated CYP3A expression in DPX2 cells. Type of data set: cell-based. How it is done:
Experimental Embodiment 3: Human Pregnane X Receptor (PXR) Assay
The effect of the compounds on the induction of PXR-mediated CYP3A expression was evaluated.
1. DPX2 cells were thawn under sterile conditions.
2. DPX2 cell solution was distributed in 96-well plate (100 μL/well), and the plate was placed in a 5% CO2/37° C. incubator overnight.
3. Quantitative feeding medium was thawn in a 37° C. water bath. Positive control rifampin was thawn at room temperature. A series of test compounds and positive control dilutions were prepared in quantitative feeding medium. The cells were carefully aspirated from each wells without disturbing the cells during aspiration and the medium was discarded. 100 μL of each test compound concentration was transferred to pre-labeled wells. The operation of the positive control group and the blank group were the same. The plate was placed back into the incubator for 24 hours exposure.
(1) 7 μL of Luciferin-IPA was added to […] feeding medium, the mixture was mixed by inverting, and poured into a Luciferin-IPA reagent tank.
(2) The 96-well plate was taken out from the incubator, and the media was carefully aspirated from each wells. 50 μL of the Luciferin-IPA reagent was added to each wells, and the cell plate was placed back into the incubator for 60 minutes.
(3) During incubation, the P450-Glo buffer was poured into the Luciferin detection reagent, and the mixture was mixed by inverting.
(4) The 96-well plate was taken out from the incubator, and 40 μL of solution from each well was transferred into the corresponding white 96-well plate, and the corresponding position of each wells was consistent with the original cell plate. […]
(8) After incubation with Luciferin detection reagent for 20 minutes, a photometer (set 1-5 seconds. Readout Time) was used to measure the luminescence of each wells of the white 96-well plate. […]
(10) After incubating for 60 minutes at 37° C., the original 96-well plate was taken out of the incubator. The reader was set to the fluorescence mode, the excitation wavelength was set to 380-400 nm, the emission wavelength was set to 505 nm, and the fluorescence intensity of each wells was measured.
(11) The cell plate was taken out of the enzyme reader, and 100 μL of ONE-Glo™ detection reagent was added to each wells. […]
(12) The enzyme reader was set to 5 seconds for pre-shaking and 5 seconds for wells reading, and the fluorescence intensity in each hole was measured. […]
The positive control was rifampicin, six concentrations were tested in each experiment. The data was analyzed using Prism to generate a concentration-response curve and the EC50 value of the compound was calculated.

Data set [2] has as its target T2, CYP1A2 (Homo sapiens, UniProt P05177).
T2 construct: Mixed human liver microsomes (HLM) were purchased from Corning Inc; tissue Corning Inc; host or cells: pooled human liver microsomes
T2 sequence (P05177 1-516): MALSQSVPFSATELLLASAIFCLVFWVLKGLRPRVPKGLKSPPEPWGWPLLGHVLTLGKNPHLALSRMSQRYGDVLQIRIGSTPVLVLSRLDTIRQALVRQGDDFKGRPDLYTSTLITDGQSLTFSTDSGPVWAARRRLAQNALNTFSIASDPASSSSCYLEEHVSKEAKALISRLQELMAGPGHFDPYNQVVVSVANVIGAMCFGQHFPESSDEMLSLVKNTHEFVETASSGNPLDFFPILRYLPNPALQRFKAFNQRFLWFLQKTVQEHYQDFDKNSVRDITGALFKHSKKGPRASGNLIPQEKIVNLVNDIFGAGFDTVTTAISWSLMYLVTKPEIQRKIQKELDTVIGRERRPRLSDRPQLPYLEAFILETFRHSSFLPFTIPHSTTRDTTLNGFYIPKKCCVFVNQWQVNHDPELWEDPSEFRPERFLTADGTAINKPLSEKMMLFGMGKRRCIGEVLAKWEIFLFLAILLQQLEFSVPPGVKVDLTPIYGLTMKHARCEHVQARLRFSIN
In words: Human liver microsomal cytochrome P450 isozyme inhibition assay, CYP1A2. Type of data set: in vitro ADME. As to conditions: human liver microsomes. How it is done:
(§1) Experimental Embodiment 4: Human Liver Microsomal Cytochrome P450 Isozyme Inhibition Assay The purpose of the assay was to evaluate the inhibitory activity of the samples against human liver microsomal cytochrome P450 isozyme (CYP1A2, CYP2C9, CYP2C19, CYP2D6 and CYP3A4) using the 5-in-1 probe substrate of the CYP isozyme. Mixed human liver microsomes (HLM) were purchased from Corning Inc. (Steuben, N.Y., USA) and stored below −80° C. before use. The test compound working solution which has been diluted into serial concentrations was added to an incubation system containing human liver microsomes, probe substrates and circulating system cofactors, and a control containing solvent without the test compound was used as the enzyme activity control (100%). The concentration of the metabolite produced by the probe substrate in the sample was determined using a liquid chromatography-tandem mass spectrometry (LC-MS/MS) method. Nonlinear regression analysis was performed on the average percent activity versus concentration of subjects using SigmaPlot (V.11). The IC50 value was calculated by a three-parameter or four-parameter inverse-logarithmic equation.
A general note: Microsomes from liver hold many membrane-bound enzymes, among them those of drug oxidation.

In data set [3] the target is T3, CYP2C9 (Homo sapiens, UniProt P11712).
T3 construct: Mixed human liver microsomes (HLM) were purchased from Corning Inc; tissue Corning Inc; host or cells: pooled human liver microsomes
T3 sequence (P11712 whole entry): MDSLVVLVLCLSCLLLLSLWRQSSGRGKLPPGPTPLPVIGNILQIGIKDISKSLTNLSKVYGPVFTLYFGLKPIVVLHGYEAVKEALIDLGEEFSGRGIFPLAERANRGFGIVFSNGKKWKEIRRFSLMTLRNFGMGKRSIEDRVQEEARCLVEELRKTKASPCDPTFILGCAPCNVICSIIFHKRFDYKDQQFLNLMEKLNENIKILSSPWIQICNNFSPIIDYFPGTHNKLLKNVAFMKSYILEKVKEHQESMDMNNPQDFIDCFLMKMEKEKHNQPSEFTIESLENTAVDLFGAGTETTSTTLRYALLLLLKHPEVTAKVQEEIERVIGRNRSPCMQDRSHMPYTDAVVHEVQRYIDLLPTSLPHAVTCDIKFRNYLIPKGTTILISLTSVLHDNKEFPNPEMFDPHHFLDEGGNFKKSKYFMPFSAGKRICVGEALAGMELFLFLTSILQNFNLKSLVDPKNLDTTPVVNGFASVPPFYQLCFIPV
As to the kind of experiment: Human liver microsomal cytochrome P450 isozyme inhibition assay, CYP2C9. In kind it is in vitro ADME. As to conditions: human liver microsomes. The protocol:
as §1

The target of data set [4] is T4, CYP2C19 (Homo sapiens, UniProt P33261).
T4 construct: Mixed human liver microsomes (HLM) were purchased from Corning Inc; tissue Corning Inc; host or cells: pooled human liver microsomes
T4 sequence (P33261 whole entry): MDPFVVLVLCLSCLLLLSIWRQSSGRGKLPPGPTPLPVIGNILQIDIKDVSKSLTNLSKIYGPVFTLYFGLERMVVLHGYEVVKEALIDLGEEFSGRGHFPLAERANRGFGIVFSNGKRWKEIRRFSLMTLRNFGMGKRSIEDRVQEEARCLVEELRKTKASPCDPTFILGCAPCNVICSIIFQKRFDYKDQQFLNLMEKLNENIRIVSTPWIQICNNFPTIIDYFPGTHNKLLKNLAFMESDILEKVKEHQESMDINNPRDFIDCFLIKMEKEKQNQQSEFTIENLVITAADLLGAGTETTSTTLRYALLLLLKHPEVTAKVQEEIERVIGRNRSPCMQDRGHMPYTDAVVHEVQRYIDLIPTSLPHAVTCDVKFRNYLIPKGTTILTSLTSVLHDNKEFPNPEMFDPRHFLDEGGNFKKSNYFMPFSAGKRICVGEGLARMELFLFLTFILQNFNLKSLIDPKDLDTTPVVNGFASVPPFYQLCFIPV
As to the kind of experiment: Human liver microsomal cytochrome P450 isozyme inhibition assay, CYP2C19. In kind it is in vitro ADME. As to conditions: human liver microsomes. How it is done:
as §1

Data set [5] concerns the target T5, CYP2D6 (Homo sapiens, UniProt P10635).
T5 construct: Mixed human liver microsomes (HLM) were purchased from Corning Inc; tissue Corning Inc; host or cells: pooled human liver microsomes
As to the kind of experiment: Human liver microsomal cytochrome P450 isozyme inhibition assay, CYP2D6. As to conditions: human liver microsomes. In kind it is in vitro ADME. How it is done:
as §1

The target in data set [6] is T6, CYP3A4 (Homo sapiens, UniProt P08684).
T6 construct: Mixed human liver microsomes (HLM) were purchased from Corning Inc; tissue Corning Inc; host or cells: pooled human liver microsomes
T6 sequence (P08684 whole entry): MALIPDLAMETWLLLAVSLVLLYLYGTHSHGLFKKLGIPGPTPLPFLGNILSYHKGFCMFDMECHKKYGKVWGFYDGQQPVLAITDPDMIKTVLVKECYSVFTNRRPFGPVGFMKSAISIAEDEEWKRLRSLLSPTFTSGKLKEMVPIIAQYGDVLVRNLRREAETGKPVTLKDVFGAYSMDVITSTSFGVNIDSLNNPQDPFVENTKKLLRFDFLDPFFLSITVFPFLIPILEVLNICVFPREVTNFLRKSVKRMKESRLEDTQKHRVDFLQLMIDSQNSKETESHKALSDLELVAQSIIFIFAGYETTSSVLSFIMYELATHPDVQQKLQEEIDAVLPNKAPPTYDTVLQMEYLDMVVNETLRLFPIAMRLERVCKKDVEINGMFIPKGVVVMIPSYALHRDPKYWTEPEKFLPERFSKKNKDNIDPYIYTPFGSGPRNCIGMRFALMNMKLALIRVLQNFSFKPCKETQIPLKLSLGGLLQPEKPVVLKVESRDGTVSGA
In words: Human liver microsomal cytochrome P450 isozyme inhibition assay, CYP3A4. Type of data set: in vitro ADME. The following applies: human liver microsomes. The protocol:
as §1

Data set [7] deals with T7, bile salt transport pump (BSEP) (Homo sapiens, UniProt O95342).
T7 construct: purchased Solvo Biotechnology SB-BSEP-Hi5-VT; host or cells: Hi5 insect cells (read from the product name; own knowledge)
T7 sequence (O95342 whole entry): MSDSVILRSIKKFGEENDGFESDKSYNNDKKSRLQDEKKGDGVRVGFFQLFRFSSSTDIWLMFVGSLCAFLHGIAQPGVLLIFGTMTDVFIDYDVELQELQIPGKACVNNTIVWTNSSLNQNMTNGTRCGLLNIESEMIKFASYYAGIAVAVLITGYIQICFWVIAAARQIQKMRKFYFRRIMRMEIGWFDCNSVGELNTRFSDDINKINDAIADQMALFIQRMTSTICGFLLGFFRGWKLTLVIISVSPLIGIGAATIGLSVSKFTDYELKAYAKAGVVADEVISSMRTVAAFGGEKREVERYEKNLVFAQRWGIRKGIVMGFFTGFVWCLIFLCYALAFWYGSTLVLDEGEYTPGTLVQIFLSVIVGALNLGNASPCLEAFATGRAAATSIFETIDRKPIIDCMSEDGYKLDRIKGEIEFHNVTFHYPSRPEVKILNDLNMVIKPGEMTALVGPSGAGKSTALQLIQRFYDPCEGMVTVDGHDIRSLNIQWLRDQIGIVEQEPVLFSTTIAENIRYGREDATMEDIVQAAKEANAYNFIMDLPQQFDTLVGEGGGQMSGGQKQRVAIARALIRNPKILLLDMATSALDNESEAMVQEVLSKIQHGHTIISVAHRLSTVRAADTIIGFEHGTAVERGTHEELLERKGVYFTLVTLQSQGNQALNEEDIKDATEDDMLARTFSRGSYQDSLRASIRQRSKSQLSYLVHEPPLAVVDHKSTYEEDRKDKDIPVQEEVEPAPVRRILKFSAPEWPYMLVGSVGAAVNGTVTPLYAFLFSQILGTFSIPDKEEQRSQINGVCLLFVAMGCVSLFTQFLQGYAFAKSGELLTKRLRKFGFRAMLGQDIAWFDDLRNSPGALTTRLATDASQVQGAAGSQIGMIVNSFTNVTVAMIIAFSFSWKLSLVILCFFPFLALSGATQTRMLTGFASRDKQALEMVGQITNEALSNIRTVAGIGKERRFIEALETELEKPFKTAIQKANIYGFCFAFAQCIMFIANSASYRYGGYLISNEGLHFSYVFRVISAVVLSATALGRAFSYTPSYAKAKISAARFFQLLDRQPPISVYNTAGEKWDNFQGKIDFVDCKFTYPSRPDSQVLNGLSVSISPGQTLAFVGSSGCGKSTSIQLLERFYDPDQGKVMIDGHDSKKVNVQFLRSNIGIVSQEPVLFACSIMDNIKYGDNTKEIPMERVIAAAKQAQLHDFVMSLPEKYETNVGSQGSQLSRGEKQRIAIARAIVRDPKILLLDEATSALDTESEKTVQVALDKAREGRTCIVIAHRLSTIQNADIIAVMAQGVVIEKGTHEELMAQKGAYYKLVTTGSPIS
As to the kind of experiment: Inhibition test on bile salt transfer pump (BSEP), taurocholic acid uptake in BSEP-Hi5-VT vesicles. In kind it is in vitro ADME.
Description: Prepared with buffer A, 8.16 mM ATP and 4.08 μM taurocholic acid were contained in 12 mL buffer A.
Prepared with buffer A, 8.16 mM AMP, 4.08 μM taurocholic acid 12 mL buffer A were contained in buffer A.
A solution containing BSEP-Hi5-VT 5 μg/μL was prepared with buffer A.
The compound was diluted to 100 mM with DMSO; then serially diluted 3-fold for an 11-point dilution; the minimum concentration was 0.169 μM.
Positive reference Glyburide was diluted to 20 mM with DMSO; then serially diluted 2-fold for an 11-point dilution; the minimum concentration was 19.5
0.3 μL of a solution of the compound in DMSO or a diluted DMSO solution were transferred into corresponding wells of the compound plate using ECHO, respectively.
14.7 μL of ATP buffer was added to the compound and the corresponding wells of zero percent effect (ZPE), respectively.
14.7 μL of AMP buffer was added to the corresponding wells of 100% effect (HPE), respectively.
The plate was shaked for 10 minutes at 25° C.
15 μL of BSEP-H15-VT Vesicle solution was added to all wells, respectively, and the plate was shaked for another 40 minutes at 25° C.
6.5 μL 0.5 M ethylenediaminetetraacetic acid (EDTA) solution was added to all wells immediately, followed by addition of 65 μL of buffer B, and the whole reaction was completed.
7.95 μL of liquid was transferred to the filter plate from the compound plate at the end of the reaction using an instrument.
After placing the liquid receiving plate under the filter plate, the liquid was removed using a centrifuge and the receiving plate liquid was discarded.
9.90 μL of buffer B was added to the filter plate. After placing the liquid receiving plate under the filter plate, the liquid was removed using a centrifuge, and the receiving plate liquid was discarded, and filter plate was washed for three times in total.
The filter plate was dried overnight.
On the next day, 80 μL of methanol/water (80/20, volume ratio) solution was added to the filter plate.
The plate was shaked for 15 minutes after the filter plate was attached to the membrane.
A new liquid receiving plate was placed under the filter plate, and the filter plate was centrifuged for 5 minutes, and all liquids in the filter plate were filtrated into the receiving plate.
15 μL of internal standard solution was added to each wells in the liquid receiving plate, and the plate was sealed with a membrane.
The content of taurocholic acid in the receiving plate was detected using LC/MS/MS.
Several concentrations were tested in each experiments. The data were analyzed using Prism to generate a concentration-response curve, and IC50 values of the compounds were calculated.

Data set [8] has as its system human liver microsomal cytochrome P450 isozyme (CYP1A2, CYP2C9, CYP2C19, CYP2D6 and CYP3A4). As to the kind of experiment: Human liver microsomal cytochrome P450 isozyme inhibition assay, summary over the main isozymes. Type of data set: in vitro ADME. As to conditions: human liver microsomes. How it is done: as §1

T5 sequence (P10635 whole entry): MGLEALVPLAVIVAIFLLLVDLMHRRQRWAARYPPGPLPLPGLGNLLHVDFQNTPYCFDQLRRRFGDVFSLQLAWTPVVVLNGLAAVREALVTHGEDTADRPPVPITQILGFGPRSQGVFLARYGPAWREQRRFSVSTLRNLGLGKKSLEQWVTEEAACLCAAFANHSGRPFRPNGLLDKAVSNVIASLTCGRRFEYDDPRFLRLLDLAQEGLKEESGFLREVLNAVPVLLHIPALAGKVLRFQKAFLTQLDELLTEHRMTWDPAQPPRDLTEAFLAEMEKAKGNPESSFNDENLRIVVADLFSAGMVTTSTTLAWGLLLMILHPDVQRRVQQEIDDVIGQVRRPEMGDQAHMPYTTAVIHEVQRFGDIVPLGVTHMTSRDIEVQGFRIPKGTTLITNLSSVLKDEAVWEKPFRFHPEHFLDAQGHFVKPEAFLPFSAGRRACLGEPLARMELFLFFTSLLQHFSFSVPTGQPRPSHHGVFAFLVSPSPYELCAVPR

Regarding `CCCNS(=O)(=O)Nc1ncnc(OCCOc2ncc(Br)cn2)c1-c1ccc(Br)cc1` [macitentan, reference compound], in data set [1], the “induction effect on PXR-mediated CYP3A expression (in words)” value is recorded as “relatively strong induction effect”. In addition, the EC50 in data set [1] (DPX2 cells, 24 hours exposure, ± is calculation error of simulation curve, read-out: EC50, induction effect on PXR-mediated CYP3A expression) is 6.34 ± 0.17 µM. In addition, the half-inhibitory concentration (IC50) is 37 µM in data set [2]; 7.5 µM in data set [3]; 31 µM in data set [4]; > 50 µM in data set [5]; 23 µM in data set [6]; 0.281 µM in data set [7] (substrate taurocholic acid, read-out: IC50, inhibitory effect on the bile salt transport pump (BSEP)). Also, the “inhibitory effects on the isozymes CYP2C9 (in words)” value in data set [3] was “moderate”. The “inhibitory effect on the bile salt transport pump (BSEP) (in words)” value in data set [7] is listed as “strong”. In addition, the “inhibitory effects on four main isozymes of CYP (in words)” value in data set [8] was “weak”.

Source of the values: patent publication US11319305B2, “Pyrimidine sulfamide derivative and preparation method and medical application thereof” (SHIJIAZHUANG SAGACITY NEW DRUG DEVELOPMENT CO., LTD., priority 2017, dated 2022).
